Source: paper PMC12595484, “Optimizing multifunctional fluorescent ligands for intracellular labeling” (Proceedings of the National Academy of Sciences of the …, 2025)

Tests used:
[1] = system: mitochondria from HEK293T cells expressing OMP25–msGFP–HaloTag; assay: Affinity capture of mitochondria with streptavidin beads, in-gel fluorescence; assay type: cell-based; conditions: for capture efficiency: 100 nM ligand, mean ± SEM; for mitochondria pulldown efficiency at 10-fold higher concentration: 1 µM ligand vs 100 nM
Procedure: We then used 15HTL and 16HTL to purify mitochondria from these cells by incubation followed by washing and cell lysis. The crude supernatant was incubated with streptavidin-coated magnetic microbeads and washed. The bead-bound mitochondria were lysed, and the resulting solution was analyzed by SDS–PAGE/in-gel fluorescence (Fig. 5 A and B). […] The lower in-gel fluorescence brightness for the wash and bound fractions of 15HTL or 16HTL compared to the wash and bound fractions of their parent dyes 5HTL or 6HTL (Fig. 5 B and C) stems from the variability of transient transfection and band broadening due to the larger ligand. […]
Affinity capture and in-gel fluorescence quantification. Affinity capture pulldown isolation experiments of biotin-labeled HaloTag fusion proteins were performed on ice-cold isolation buffer (IB) consisting of KCl (0.18 M), ethylene glycol-bis(β-aminoethyl ether)-N,N,N′,N′-tetraacetic acid (EGTA; 1 mM), 3-(N-morpholino)propanesulfonic acid (MOPS; 5 mM); the pH was adjusted to pH = 7.35 using KOH(aq).15 StrepTactin Microbeads (IBA Lifesciences, 6-5510-050) were used as capture reagents as these beads had lowest amount of background observed in our hands. These beads were kept at 4 °C and blocked in IB buffer with PMSF and 1% (v/v) bovine serum albumin (BSA; Jackson ImmunoResearch, 001-000-162) with rotation at 4 °C for 30 min. HEK293T cells were scraped with 200 µL IB and homogenized using 12 strokes with a 27G syringe. The resulting homogenate was spun at 4 °C at 800 g for 5 min to pellet large cellular debris. 50 µL of freshly blocked StrepTactin microbeads were added to the supernatant and incubated for 30 min at 4 °C with slow rotation. After incubation, tubes were placed in DynaMag2 (ThermoFisher, 12321D) magnetic racks and washed twice with IB+PMSF. All wash steps were kept at 4 °C (cold room).
The post-bead supernatant and wash volumes were pooled and spun at 15,000 g for 12 min. This last step pelleted the unbound mitochondria for final analysis of capture efficiency. The bead fraction and the pooled/pelleted fraction were then solubilized using the lysis buffer containing 1× PBS, 2% (v/v) SDS, 1% (v/v) Triton x-100, 10 mM EDTA, and protease inhibitors (2 mM PMSF, aprotinin, leupeptin, and pepstatin A). Samples were then incubated at 50 °C for 3–4 min after the addition of Laemmli sample buffer (SB; Bio-Rad, 1610747) with β-mercaptoethanol (Bio-Rad, 1610710). For protein detection, 10–20 µL of the sample was subjected to SDS-PAGE, using 10% Tris-Glycine gels (TGX) (Bio-Rad, 5671034) with Tris-Glycine buffer (Bio-Rad, 1610732). The affinity capture pulldown efficiency was monitored using in-gel fluorescence. The msGFP signal from HaloTag-TEV-4×GS-msGFP-mito after cell lysis and SDS-PAGE was analyzed, in-gel, using a Bio-Rad Chemidoc MP imager (Bio-Rad) through GFP fluorescence excitation and emission filters. Data were quantified by densitometry using Fiji.14 Capture efficiency was calculated comparing the total GFP signal recovered from StrepTactin beads vs the signal recovered from the high speed spin of the bead supernatant and pooled wash volumes. […]

[2] = Determination of lactone–zwitterion equilibrium constant KL–Z; assay type: physicochemical; conditions: 1:1 (v/v) dioxane–water
Procedure: Detailed descriptions of the materials and methods are provided in the supporting information. Multifunctional rhodamine–HaloTag ligands (13HTL–16HTL and 18HTL–20HTL) were synthesized using palladium-catalyzed cross-coupling reactions to install 3-carboxyazetidine moieties onto rhodamine scaffolds, followed by amide bond formation with biotin–PEG2–NH2, (S)-JQ1–PEG2–NH2, or (R)-JQ1–PEG2–NH2. Spectroscopic properties (λabs, λem, ε, and Φf) were determined in 10 mM HEPES, pH 7.3. The lactone–zwitterion equilibrium constants (KL–Z) were measured in 1:1 (v/v) dioxane–water mixtures. Octanol–water distribution coefficients (logD7.4) were determined by miniaturized shake-flask partitioning experiments using PBS (pH 7.4) and 1-octanol. Cell culture experiments employed HEK293T, U2OS, and Neuro2a cells transfected with HaloTag fusion constructs and labeled with ligands (100 nM to 1 μM, 0.5 to 2 h at 37 °C), followed by fluorescence microscopy using confocal or lattice light-sheet microscopy. Affinity purification studies utilized streptavidin magnetic beads to capture biotin-labeled HaloTag conjugates, with analysis by SDS-PAGE and in-gel fluorescence detection. […]
Reported values for extinction coefficient (ε) are averages of at least two […]
Determination of KL−Z. The lactone−zwitterion equilibrium constant (KL−Z) was calculated as described previously2-4 using equation 1: […]
where εdw is the extinction coefficient of the dyes in a 1:1 (v/v) dioxane:water solvent mixture containing 0.01% (v/v) triethylamine; this dioxane−water mixture was chosen to give a large range of KL−Z values,3 and the triethylamine additive ensures the rhodamines are in the net neutral form.
The εmax is the maximal extinction coefficient, measured in 0.1% (v/v) trifluoroacetic acid in 2,2,2-trifluoroethanol (TFE) or ethanol. […]

Row | Structure (SMILES) | protein capture ([1]; biotin-free ligands) | KL–Z [2] | capture efficiency [1] [%] | mitochondria pulldown efficiency at 10-fold higher concentration [1]
1 | C[Si]1(C)c2cc(N3CC(F)C3)ccc2C2(OC(=O)c3ccc(C(=O)NCCOCCOCCCCCCCl)cc32)c2ccc(N3CC(F)C3)cc21 [6HTL, JF635–HaloTag ligand, reference compound] | no appreciable protein capture | 0.0048 |  | 
2 | O=C(CCCCC1SCC2NC(=O)NC21)NCCOCCOCCNC(=O)C1C[N+](=c2ccc3c(-c4cc(C(=O)NCCOCCOCCCCCCCl)ccc4C(=O)[O-])c4ccc(N5CCC5)cc4oc-3c2)C1 (stereo not shown) [13HTL, biotin–JF549–HaloTag ligand] |  | 5.9 |  | 
3 | CC1(C)C2=CC(=[N+]3CC(C(=O)NCCOCCOCCNC(=O)CCCC[C@@H]4SC[C@@H]5NC(=O)N[C@@H]54)C3)C=CC2=C(c2cc(C(=O)NCCOCCOCCCCCCCl)ccc2C(=O)[O-])c2ccc(N3CCC3)cc21 (stereo partly shown) [14HTL, biotin–JF608–HaloTag ligand] |  | 0.17 |  | 
4 | C[Si]1(C)C2=CC(=[N+]3CC(C(=O)NCCOCCOCCNC(=O)CCCC[C@@H]4SC[C@@H]5NC(=O)N[C@@H]54)C3)C=CC2=C(c2cc(C(=O)NCCOCCOCCCCCCCl)ccc2C(=O)[O-])c2ccc(N3CCC3)cc21 (stereo partly shown) [15HTL, biotin–JF646–HaloTag ligand] |  | 0.0086 | 84.2 ± 1.8 | did not increase mitochondria pulldown efficiency
5 | C[Si]1(C)C2=CC(=[N+]3CC(F)(C(=O)NCCOCCOCCNC(=O)CCCC[C@@H]4SC[C@@H]5NC(=O)N[C@@H]54)C3)C=CC2=C(c2cc(C(=O)NCCOCCOCCCCCCCl)ccc2C(=O)[O-])c2ccc(N3CC(F)C3)cc21 (stereo partly shown) [16HTL, biotin–JF635–HaloTag ligand] |  | 0.0032 | 88.2 ± 1.1 | did not increase mitochondria pulldown efficiency
